Laboratory results reported in patent EP0097567B1, “Use of polyethoxylated alkyl phenols as antiseborrheic agents” (SANOFI S.A., priority 1982, dated 1984).

Columns and labels:
[1] = system: lipogénèse sébacée; assay: Activity on sebaceous lipogenesis in vitro (incorporation of 14C-glucose into lipids of rat ear skin slices); assay type: cell-based, rats mâles Sprague Dawley; conditions: 4 h, pure products, read-out: Synthèse des lipides à partir de glucose (U-1^14C)Δ % témoin; for inhibition at 0.01 %: concentration 0,01 %; for inhibition at 0.001 %: concentration 0,001 %; for inhibition at 0.0025 %: concentration 0,0025 %; for inhibition at 0.005 %: concentration 0,005 %; for inhibition at 0.0005 %: concentration 0,0005 %
Text: Après sacrifice au chloroforme de rats mâles Sprague Dawley, d'un poids moyen de 210 g, les oreilles sont découpées aux ciseaux suivant des repères anatomiques fixes, puis leur côté ventral est soigneusement rasé. Après fixation à l'aide de rubans adhésifs sur une plaque de verre, le côté ventral de l'oreille est prélivé à l'aide d'un kératotome de Castroviejo dont l'épaisseur de coupe est réglée sur 3 mm. Ce prélèvement est ensuite coupé en petits carrés de 1 mm^2 avec une lame de rasoir et pesé avant introduction dans le tube servant à l'incubation.
L'incubation se fait dans 1,5 ml de Krebs-Ringer tamponné à pH 7,4 (tampon phosphate Sôrensen 1/15 M) et contenant 100 U/ml de pénicilline, 1 mg/ml de Streptomycine et 2 mmol de glucose non radioactif. Le produit, à la concentration à étudier, est préalablement dissous dans du propylèneglycol (concentration finale égale à 0,5%), puis introduit dans le milieu d'incubation. Les tubes servant à l'incubation sont maintenus dans un bain de glace, jusqu'à ce que tous les prélèvements soient effectués, puis 7,4kBq de glucose U_^14C (74-148 MBq/mmol) sont ajoutés dans chaque tube.
Pour chaque rat utilisé, une des oreilles sert à tester le produit antiséborrhéique potentiel, alors que l'autre sert de témoin.
Après 4 heures d'incubation à 37°C, le milieu d'incubation est éliminé, puis l'incubat subit 4 lavages de 3 mins avec agitation à l'aide de glucose non radioactif (2 g/I). Une fois la dernière eau de lavage éliminée, 3 ml de potasse alcoolique N sont rajoutés dans chaque tube contenant les glandes sébacées de la peau d'oreille. Les tubes sont bouchés et portés à 70°C pendant une nuit.
Après ce temps, les tubes sont refroidis et 3 ml d'acide chlorhydrique 2N sont introduits dans chaque tube. Les lipides présents correspondant aux glandes sébacées de chaque oreille sont alors extraits par 2 fois 4 ml d'hexane après agitation de 5 min. Après séparation des phases aqueuse et hexanique, 3,25 ml d'hexane à la première extraction et 4 ml à la deuxième sont prélevés et réunis dans une fiole de comptage contenant 10 ml de liquide de mélange scintillant.
Les fioles, après bouchage et- agitation, sont introduites dans un compteur à scintillation liquide préréglé sur le canal ^14C. Le temps de comptage de chaque fiole est de 4 min. Pour chaque fiole, le résultat exprimé en coups/minute (cpm) est transformé en fonction du poids de prélèvement en cpm/mg et l'inhibition (ou l'augmentation) de la synthèse des lipides est donnée par la variation % (A%) de l'incorporation en cpm/mg entre l'oreille témoin et l'oreille "traitée".
La moyenne des A% est effectuée et la valeur statistique des résultats est déterminée par le calcul du coefficient "t" de Student.

[2] = system: organes du flanc; assay: Local antiseborrheic activity (testosterone propionate-stimulated hamster flank organ, lipogenesis from 14C-glucose); assay type: in vivo, hamsters femelles Syrien doré; conditions: topical, dose de 2000 µg par jour
Protocol: Des hamsters femelles Syrien doré, d'un poids moyen de 110 g, sont tondus et rasés au niveau des organes du flanc qui se présentent sous l'aspect d'une tache sombre de 2 mm de diamètre environ, de part et d'autre de la colonne vertébrale. Sur un des organes, 1,25 µg de testostérone propionate est appliqué journellement sous un volume de 10 µl d'acétone, l'autre organe recevent la même quantité de testostérone associée au produit à étudier. Le traitement s'effectue 5 jours/7 jours pendant 21 jours.
A la fin de cette période, les animaux sont sacrifiés au chloroforme et les diamètres des taches pigmentées sont measurés à l'aide d'une régie graduée. La peau est prélevée, fixée côte épiderme vers le bas, sur une planche en bois. Le muscle peaucier et le tissu adipeux sont alors éliminés par rabotage au Kératotome de Castroviejo (épaisseur de coupe réglée à 3 mm), puis une biopsie de 10 mm de diamètre au niveau de chaque organe est réalisée à l'aide d'un trépan. Cette biopsie est débitée en carrés de 1 mm^2, puis pesée (±0,1 mg).
Le reste de manipulation: incubation, saponification, extraction, est identique à celui effectué dans le test de lipogénèse in vitro ci-dessus.

Row | SMILES | inhibition at 0.01 % [1] [%] | inhibition at 0.001 % [1] [%] | inhibition at 0.0025 % [1] [%] | inhibition at 0.005 % [1] [%] | inhibition at 0.00025 % ([1]; concentration 0,00025 %) [%] | inhibition at 0.0005 % [1] [%] | inhibition at 0.025 % ([1]; concentration 0,025 %) [%] | inhibition de la lipogenèse sébacée par rapport au témoin [2] [%]
1 | CCCCCCCCCc1ccc(OCCOCCOCCOCCOCCOCCOCCOCCOCCO)cc1 [compound 7948] | 81 | 10 | 31 | 61 |  |  |  | 
2 | CCCCCCCCCc1ccc(OCCOCCOCCOCCOCCOCCOCCOCCOCCOCCOCCOCCO)cc1 [compound 7886] |  | 51 |  | 84 | 6 | 33 | 71 | 100
3 | CC(C)(C)CC(C)(C)c1ccc(OCCOCCOCCOCCOCCOCCO)cc1 [40 181] | 67 | 4 | 5 | 42 |  |  |  | 
4 | CCCCCCCCCc1ccc(OCCOCCOCCOCCOCCOCCO)cc1 [40 124, nonyl-4 phénoxy-17 pentaoxa-3,6,9,12,15 heptadécanol-1] | 55 | 6 | 31 | 42 |  |  |  | 
5 | CC(C)(C)CC(C)(C)c1ccc(OCCOCCOCCOCCOCCOCCOCCOCCOCCOCCOCCOCCO)cc1 [40 182] |  | 41 | 69 | 89 |  | 19 |  | 
